Experimental data taken from US8592552B2 (priority 2007, dated 2013).
Where no end group is shown, it is not given here.

Experiments:
[1] = test system: Vero cells
[2] = test system: African swine fever virus (ASFV) BA71V; format: cell-based

Substance	proliferation of Vero cells (proliferative index) [1]	I.C.E. at 50 μM (inhibition of the cytopathic effect) [2]	I.C.E. at 100 μM (inhibition of the cytopathic effect) [2]
RRRRRRRRSLVSSDESSSGSSHSSGEHS [RS28]	not modified		
SS20: 20-residue negative control peptide of irrelevant sequence (SLVSSDESSSGSSHSSGEHS) [reference compound]		no	no
